Biological target: T1, LRRK2 (Homo sapiens, UniProt Q5S007, G2019S)
T1 construct: purchased Invitrogen PV4882 (lot 567054A)
Assay: In Vitro LRRK2 Assay (LabChip 3000, fluorescently-labeled peptide substrate, ATP)
Assay type: biochemical
Conditions: read-out: LRRK2 Ki (KI), Table 8
Summary of the method: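 Read-out was LabChip capillary electrophoresis, resolving phospho- from non-phospho-peptide by fluorescence intensity. The kinase reaction combined enzyme, ATP, test compound and labeled peptide (4 μM working dilution) for 2 h in darkness before stop solution. Values were reported as Ki, from a tight-binding model with Et, S and Km, or as IC50 or percent inhibition.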

T1 sequence (Q5S007 whole entry G2019S): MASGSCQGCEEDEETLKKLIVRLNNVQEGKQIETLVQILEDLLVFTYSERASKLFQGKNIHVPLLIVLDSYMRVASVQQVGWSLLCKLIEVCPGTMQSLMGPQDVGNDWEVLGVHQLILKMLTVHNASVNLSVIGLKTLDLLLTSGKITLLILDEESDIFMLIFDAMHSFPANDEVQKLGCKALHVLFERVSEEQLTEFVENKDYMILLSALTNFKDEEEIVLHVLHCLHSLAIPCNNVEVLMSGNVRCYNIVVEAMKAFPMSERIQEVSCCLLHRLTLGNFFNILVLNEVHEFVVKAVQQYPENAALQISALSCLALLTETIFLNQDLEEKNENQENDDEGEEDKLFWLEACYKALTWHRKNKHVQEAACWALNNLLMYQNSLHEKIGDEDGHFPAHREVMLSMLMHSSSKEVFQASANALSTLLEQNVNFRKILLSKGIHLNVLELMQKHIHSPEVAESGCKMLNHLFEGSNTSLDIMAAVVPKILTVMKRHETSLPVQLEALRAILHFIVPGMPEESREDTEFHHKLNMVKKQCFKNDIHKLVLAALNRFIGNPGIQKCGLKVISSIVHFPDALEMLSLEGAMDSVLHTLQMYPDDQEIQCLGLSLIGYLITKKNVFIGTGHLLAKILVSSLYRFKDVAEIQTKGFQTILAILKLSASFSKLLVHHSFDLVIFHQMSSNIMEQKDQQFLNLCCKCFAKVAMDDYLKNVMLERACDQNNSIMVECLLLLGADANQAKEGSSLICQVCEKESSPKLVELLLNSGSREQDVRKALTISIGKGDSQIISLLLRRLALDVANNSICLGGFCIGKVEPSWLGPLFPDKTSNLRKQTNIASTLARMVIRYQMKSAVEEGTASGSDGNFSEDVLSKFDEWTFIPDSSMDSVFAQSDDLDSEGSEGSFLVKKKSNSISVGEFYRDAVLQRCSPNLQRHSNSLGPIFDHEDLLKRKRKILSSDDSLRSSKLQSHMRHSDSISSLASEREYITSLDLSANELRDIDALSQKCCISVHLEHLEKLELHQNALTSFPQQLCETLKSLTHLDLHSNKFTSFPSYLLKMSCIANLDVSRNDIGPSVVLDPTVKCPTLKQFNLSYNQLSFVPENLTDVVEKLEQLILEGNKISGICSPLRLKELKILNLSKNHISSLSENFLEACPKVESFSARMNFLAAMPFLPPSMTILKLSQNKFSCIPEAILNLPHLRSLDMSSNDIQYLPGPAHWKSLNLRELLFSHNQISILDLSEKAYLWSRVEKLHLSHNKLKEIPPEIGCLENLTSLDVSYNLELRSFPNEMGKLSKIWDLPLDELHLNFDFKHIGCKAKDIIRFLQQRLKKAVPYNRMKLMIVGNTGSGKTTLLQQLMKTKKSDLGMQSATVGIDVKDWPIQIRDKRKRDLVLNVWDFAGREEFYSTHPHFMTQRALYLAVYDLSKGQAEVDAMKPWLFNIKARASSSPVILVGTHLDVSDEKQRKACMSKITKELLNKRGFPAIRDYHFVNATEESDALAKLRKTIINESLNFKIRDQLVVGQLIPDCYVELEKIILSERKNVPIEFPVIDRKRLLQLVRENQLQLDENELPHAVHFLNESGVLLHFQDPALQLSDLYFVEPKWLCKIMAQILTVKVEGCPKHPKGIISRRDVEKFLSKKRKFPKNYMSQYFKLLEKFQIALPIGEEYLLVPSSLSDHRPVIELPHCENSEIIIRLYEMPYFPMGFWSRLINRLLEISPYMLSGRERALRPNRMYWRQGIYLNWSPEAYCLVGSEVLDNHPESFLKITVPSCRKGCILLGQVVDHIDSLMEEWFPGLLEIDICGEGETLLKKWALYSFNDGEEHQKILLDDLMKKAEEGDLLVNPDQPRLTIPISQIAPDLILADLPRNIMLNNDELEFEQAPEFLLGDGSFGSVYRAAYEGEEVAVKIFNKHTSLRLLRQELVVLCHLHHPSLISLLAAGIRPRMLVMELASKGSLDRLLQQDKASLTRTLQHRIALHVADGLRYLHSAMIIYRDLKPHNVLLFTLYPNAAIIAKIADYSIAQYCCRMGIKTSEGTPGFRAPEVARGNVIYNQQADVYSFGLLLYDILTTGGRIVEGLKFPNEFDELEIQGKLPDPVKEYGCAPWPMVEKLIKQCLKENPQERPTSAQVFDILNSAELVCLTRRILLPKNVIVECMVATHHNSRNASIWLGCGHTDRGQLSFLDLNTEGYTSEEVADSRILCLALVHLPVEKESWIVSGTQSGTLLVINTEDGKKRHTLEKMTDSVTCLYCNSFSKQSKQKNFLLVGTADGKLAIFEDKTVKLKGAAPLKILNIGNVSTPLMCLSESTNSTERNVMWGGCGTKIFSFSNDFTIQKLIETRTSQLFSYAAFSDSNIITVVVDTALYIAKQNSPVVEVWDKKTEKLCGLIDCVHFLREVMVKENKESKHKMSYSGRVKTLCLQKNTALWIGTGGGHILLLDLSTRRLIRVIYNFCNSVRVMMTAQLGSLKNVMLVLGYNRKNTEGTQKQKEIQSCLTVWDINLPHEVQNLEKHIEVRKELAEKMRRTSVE

Compound | Ki
CCNc1nc(Nc2cnn([C@H]3CCCN(C4COC4)C3)c2C)ncc1C(F)(F)F [Example 307, N4-Ethyl-N2-[5-methyl-1-((S)-1-oxetan-3-yl-piperidin-3-yl)-1H-pyrazol-4-yl]-5-trifluoromethyl-pyrimidine-2,4-diamine] | 0.3 nM
CCNc1nc(Nc2cn([C@H]3CCCN(C4COC4)C3)nc2C)ncc1C(F)(F)F [Example 308, N4-Ethyl-N2-[3-methyl-1-((S)-1-oxetan-3-yl-piperidin-3-yl)-1H-pyrazol-4-yl]-5-trifluoromethyl-pyrimidine-2,4-diamine] | 8.5 nM
CNc1nc(Nc2cnn(Cc3cccnn3)c2C)ncc1C(F)(F)F [Example 309, N4-Methyl-N2-(5-methyl-1-pyridazin-3-ylmethyl-1H-pyrazol-4-yl)-5-trifluoromethyl-pyrimidine-2,4-diamine] | 2.8 nM
CNc1nc(Nc2cn(Cc3cccnn3)nc2C)ncc1C(F)(F)F [Example 310, N4-Methyl-N2-(3-methyl-1-pyridazin-3-ylmethyl-1H-pyrazol-4-yl)-5-trifluoromethyl-pyrimidine-2,4-diamine] | 9.3 nM
CCNc1nc(Nc2cnn([C@H]3CCCN(C)C3)c2C)ncc1C(F)(F)F [Example 311, N4-Ethyl-N2-[5-methyl-1-((S)-1-methyl-piperidin-3-yl)-1H-pyrazol-4-yl]-5-trifluoromethyl-pyrimidine-2,4-diamine] | 1.2 nM
CCNc1nc(Nc2cn([C@H]3CCCN(C)C3)nc2C)ncc1C(F)(F)F [Example 312, N4-Ethyl-N2-[3-methyl-1-((S)-1-methyl-piperidin-3-yl)-1H-pyrazol-4-yl]-5-trifluoromethyl-pyrimidine-2,4-diamine] | 15.6 nM
CNc1nc(Nc2cnn(CC(C)(C)C#N)c2Cl)ncc1C(F)(F)F [Example 313, 3-[5-Chloro-4-(4-methylamino-5-trifluoromethyl-pyrimidin-2-ylamino)-pyrazol-1-yl]-2,2-dimethyl-propionitrile] | 1.7 nM
CNc1nc(Nc2cnn(Cc3cccc(C)n3)c2C)ncc1C(F)(F)F [Example 314, N4-Methyl-N2-[5-methyl-1-(6-methyl-pyridin-2-ylmethyl)-1H-pyrazol-4-yl]-5-trifluoromethyl-pyrimidine-2,4-diamine] | 1.5 nM
CNc1nc(Nc2cnn(Cc3ncccn3)c2C)ncc1C(F)(F)F [Example 315, N4-Methyl-N2-(5-methyl-1-pyrimidin-2-ylmethyl-1H-pyrazol-4-yl)-5-trifluoromethyl-pyrimidine-2,4-diamine] | 1.4 nM
CNc1nc(Nc2cnn(Cc3cnccn3)c2C)ncc1C(F)(F)F [Example 316, N4-Methyl-N2-(5-methyl-1-pyrazin-2-ylmethyl-1H-pyrazol-4-yl)-5-trifluoromethyl-pyrimidine-2,4-diamine] | 2.6 nM
CNc1nc(Nc2cn(Cc3cnccn3)nc2C)ncc1C(F)(F)F [Example 317, N4-Methyl-N2-(3-methyl-1-pyrazin-2-ylmethyl-1H-pyrazol-4-yl)-5-trifluoromethyl-pyrimidine-2,4-diamine] | 1.2 nM
CCNc1nc(Nc2cnn(CC(C)(C)C#N)c2Cl)ncc1C(F)(F)F [Example 318, 3-[5-Chloro-4-(4-ethylamino-5-trifluoromethyl-pyrimidin-2-ylamino)-pyrazol-1-yl]-2,2-dimethyl-propionitrile] | 0.7 nM
CCNc1nc(Nc2cn(C3CCN(C4COC4)CC3F)nc2C)ncc1C(F)(F)F (centres unmarked) [Example 319, N4-Ethyl-N2-[1-(3-fluoro-1-oxetan-3-yl-piperidin-4-yl)-3-methyl-1H-pyrazol-4-yl]-5-trifluoromethyl-pyrimidine-2,4-diamine] | 0.3 nM
CNc1nc(Nc2cnn(CC(O)C(C)C)c2C)ncc1C(F)(F)F (centres unmarked) [Example 320, 3-Methyl-1-[5-methyl-4-(4-methylamino-5-trifluoromethyl-pyrimidin-2-ylamino)-pyrazol-1-yl]-butan-2-ol] | 3 nM
CNc1nc(Nc2cn(CC(O)C(C)C)nc2C)ncc1C(F)(F)F (centres unmarked) [Example 321, 3-Methyl-1-[3-methyl-4-(4-methylamino-5-trifluoromethyl-pyrimidin-2-ylamino)-pyrazol-1-yl]-butan-2-ol] | 10.8 nM
CCNc1nc(Nc2cn(C3CCN(CC4OCCO4)C3)nc2C)ncc1C(F)(F)F (centres unmarked) [Example 322, N2-[1-(1-[1,3]Dioxolan-2-ylmethyl-pyrrolidin-3-yl)-3-methyl-1H-pyrazol-4-yl]-N4-ethyl-5-trifluoromethyl-pyrimidine-2,4-diamine] | 4.9 nM
CNc1nc(Nc2cnn(Cc3ccncn3)c2C)ncc1C(F)(F)F [Example 323, N4-Methyl-N2-(5-methyl-1-pyrimidin-4-ylmethyl-1H-pyrazol-4-yl)-5-trifluoromethyl-pyrimidine-2,4-diamine] | 2.2 nM
CNc1nc(Nc2cnn(Cc3ccn(C)n3)c2C)ncc1C(F)(F)F [Example 324, N4-Methyl-N2-[5-methyl-1-(1-methyl-1H-pyrazol-3-ylmethyl)-1H-pyrazol-4-yl]-5-trifluoromethyl-pyrimidine-2,4-diamine] | 0.6 nM
CNc1nc(Nc2cn(Cc3ccn(C)n3)nc2C)ncc1C(F)(F)F [Example 325, N4-Methyl-N2-[3-methyl-1-(1-methyl-1H-pyrazol-3-ylmethyl)-1H-pyrazol-4-yl]-5-trifluoromethyl-pyrimidine-2,4-diamine] | 3.8 nM
CNc1nc(Nc2cn(CC(C)(C)C#N)nc2Cl)ncc1C(F)(F)F [Example 326, 3-[3-Chloro-4-(4-methylamino-5-trifluoromethyl-pyrimidin-2-ylamino)-pyrazol-1-yl]-2,2-dimethyl-propionitrile] | 8.2 nM
CCNc1nc(Nc2cn(C(C)(C)c3nnc[nH]3)nc2C)ncc1C(F)(F)F [Example 327, N4-Ethyl-N2-{3-methyl-1-[1-methyl-1-(4H-[1,2,4]triazol-3-yl)-ethyl]-1H-pyrazol-4-yl}-5-trifluoromethyl-pyrimidine-2,4-diamine] | 0.5 nM
CCNc1nc(Nc2cnn(C3CCN(CC4OCCO4)C3)c2C)ncc1C(F)(F)F (centres unmarked) [Example 328, N2-[1-(1-[1,3]Dioxolan-2-ylmethyl-pyrrolidin-3-yl)-5-methyl-1H-pyrazol-4-yl]-N4-ethyl-5-trifluoromethyl-pyrimidine-2,4-diamine] | 0.4 nM
CNc1nc(Nc2cn(Cc3ccncn3)nc2C)ncc1C(F)(F)F [Example 329, N4-Methyl-N2-(3-methyl-1-pyrimidin-4-ylmethyl-1H-pyrazol-4-yl)-5-trifluoromethyl-pyrimidine-2,4-diamine] | 5.2 nM
CNc1nc(Nc2cnn(C)c2CF)ncc1C(F)(F)F [Example 330, N2-(5-Fluoromethyl-1-methyl-1H-pyrazol-4-yl)-N4-methyl-5-trifluoromethyl-pyrimidine-2,4-diamine] | 24.5 nM

Further lines, results first:

Ki | Compound
0.8 nM | CCNc1nc(Nc2cn(C(C)(C)c3nnc(C)[nH]3)nc2C)ncc1C(F)(F)F [Example 331, N4-Ethyl-N2-{3-methyl-1-[1-methyl-1-(5-methyl-4H-[1,2,4]triazol-3-yl)-ethyl]-1H-pyrazol-4-yl}-5-trifluoromethyl-pyrimidine-2,4-diamine]
2.3 nM | CNc1nc(Nc2cn(C(C)(C)c3nnc[nH]3)nc2C)ncc1C(F)(F)F [Example 332, N4-Methyl-N2-{3-methyl-1-[1-methyl-1-(4H-[1,2,4]triazol-3-yl)-ethyl]-1H-pyrazol-4-yl}-5-trifluoromethyl-pyrimidine-2,4-diamine]
0.7 nM | CCNc1nc(Nc2cn(C3CCNCC3F)nc2C)ncc1C(F)(F)F (centres unmarked) [Example 333, N4-Ethyl-N2-[1-(3-fluoro-piperidin-4-yl)-3-methyl-1H-pyrazol-4-yl]-5-trifluoromethyl-pyrimidine-2,4-diamine]
6.3 nM | CNc1nc(Nc2cnn(C3CCCC3O)c2C)ncc1C(F)(F)F (centres unmarked) [Example 334, 2-[5-Methyl-4-(4-methylamino-5-trifluoromethyl-pyrimidin-2-ylamino)-pyrazol-1-yl]-cyclopentanol]
3.3 nM | CNc1nc(Nc2cn(C3CCCC3O)nc2C)ncc1C(F)(F)F (centres unmarked) [Example 335, 2-[3-Methyl-4-(4-methylamino-5-trifluoromethyl-pyrimidin-2-ylamino)-pyrazol-1-yl]-cyclopentanol]
1.2 nM | CCNc1nc(Nc2cn(C(C)(C)c3nnc(C)o3)nc2C)ncc1C(F)(F)F [Example 336, N4-ethyl-N2-(3-methyl-1-(2-(5-methyl-1,3,4-oxadiazol-2-yl)propan-2-yl)-1H-pyrazol-4-yl)-5-(trifluorometliyl) pyrimidine-2,4-diamine]
7.6 nM | CCNc1nc(Nc2cn(C(C)(C)c3nncn3C)nc2C)ncc1C(F)(F)F [Example 337, N4-ethyl-N2-(3-methyl-1-(2-(4-methyl-4H-1,2,4-triazol-3-yl)propan-2-yl)-1H-pyrazol-4-yl)-5-(trifluoromethyl) pyrimidine-2,4-diamine]
0.3 nM | CCNc1nc(Nc2cn(C(C)(C)c3ncn(C)n3)nc2C)ncc1C(F)(F)F [Example 338, N4-ethyl-N2-(3-methyl-1-(2-(1-methyl-1H-1,2,4-triazol-3-yl)propan-2-yl)-1H-pyrazol-4-yl)-5-(trifluoromethyl) pyrimidine-2,4-diamine]
11.7 nM | CNc1nc(Nc2cn(C(C)(C)c3nnc(C)o3)nc2C)ncc1C(F)(F)F [Example 339, N4-methyl-N2-(3-methyl-1-(2-(5-methyl-1,3,4-oxadiazol-2-yl)propan-2-yl)-1H-pyrazol-4-yl)-5-(trifluoromethyl) pyrimidine-2,4-diamine]
0.3 nM | CNc1nc(Nc2cn(C(C)(C)c3cnn(C)c3)nc2C)ncc1C(F)(F)F [Example 340, N4-methyl-N2-(3-methyl-1-(2-(1-methyl-1H-pyrazol-4-yl)propan-2-yl)-1H-pyrazol-4-yl)-5-(trifluoromethyl) pyrimidine-2,4-diamine]
6.1 nM | CNc1nc(Nc2cnn(C(C)(C)c3cnn(C)c3)c2C)ncc1C(F)(F)F [Example 341, N4-methyl-N2-(5-methyl-1-(2-(1-methyl-1H-pyrazol-4-yl)propan-2-yl)-1H-pyrazol-4-yl)-5-(trifluoromethyl) pyrimidine-2,4-diamine]

Source: patent publication US8815882B2, “Pyrazole aminopyrimidine derivatives as LRRK2 modulators” (Genentech, Inc., priority 2010, dated 2014)
